According to patent US20070117833A1, “Pharmaceutical compositions” (priority 2003, published 2007):

Columns and labels:
[1] = tested on: human rheumatoid synovial fibroblast; experiment: Spontaneous proliferation of human rheumatoid synovial fibroblast; type: cell-based
[2] = 4-week toxicity study in rats; type: in vivo
Procedure: (§1) Rapamycin or derivatives thereof are well tolerated at dosages required for use in accordance with the present invention. For example, the NTEL for Compound A in a 4-week toxicity study is 0.5 mg/kg/day in rats and 1.5 mg/kg/day in monkeys.

[3] = tested on: LPS induced fever; experiment: LPS fever (antipyretic effects); type: in vivo; settings: rats, LPS 100 μg/kg s.c., p.o.; (95% limits)
Procedure: LPS fever. An injection of lypopolysaccharide (LPS) at a dose of 100 μg/kg in 5 ml/kg is given subcutaneously, and 2 hours later the temperature is measured using a rectal thermocouple. The rats are then placed into matched treatment groups according to their temperature responses. At time +4 hours, the mTOR inhibitor is administered p.o., and the final temperatures measured again at time +6 hours. The increase in temperature is calculated for each animal and the % inhibition determined for each treatment group compared to the vehicle control group.

[4] = 4-week toxicity study in monkeys; type: in vivo
Procedure: as §1

[5] = tested on: paw hyperalgesia; experiment: Anti-nociceptive activity in a model of inflammatory pain (intra-plantar yeast hyperalgesia); type: in vivo, male OFA rats
Procedure: Hyperalgesia is induced by an intra-plantar yeast injection and nociception measured by applying increasing pressure to the foot until the animal vocalizes or withdraws its foot from the pressure pad. The baseline pressure required to induce vocalization or withdrawal of the paw of male OFA rats is measured (−2 hours), followed by an intra-plantar injection of 100 μl of a 20% yeast suspension in water in the hind paw. The rats are treated orally with rapamycin or a derivative thereof (0.5, 2 or 4 mg/kg) or vehicle (saline) p.o. 2 hours later (0 hours), and the pressure test repeated 1 and 2 hours after dosing. The pressure required to induce vocalization or paw withdrawal of the compound-treated rats at these time-points is compared to that of vehicle-treated animals.

[6] = tested on: IL-1β induced fever; experiment: IL-1 fever (antipyretic effects); type: in vivo; settings: rats, 100 ng IL-1β i.v., p.o.
Procedure: IL-1 fever. Baseline temperature is measured and the rats placed into matched groups. The animals are dosed with the mTOR inhibitor (0.5, 2 or 4 mg/kg) p.o., and 30 minutes later given an injection of 100 ng IL-1β i.v. At time +4hours the final temperatures are measured and the % inhibition calculated as for LPS fever.

[7] = tested on: rheumatoid arthritis; experiment: Placebo-controlled, double blind clinical trial in RA patients who are methotrexate partial responders; type: in vivo, human; settings: 6 mg/day in combination with background methotrexate
Procedure: 120 patients who are methotrexate partial responders are randomized in 2 groups to receive the mTOR inhibitor a) or placebo once daily for 12 weeks while continuing their background methotrexate treatment. There is an initial Screening visit (days −21 to −7) prior to the baseline. Disease status is assessed at the Screening and Baseline visits. During the 12 weeks treatment period the patients will be seen at Weeks 1, 2, 4, 8 and 12 and in the follow-up period at Weeks 14, 16, 20 and 24.
The criteria for inclusion of the patients in the trial: they must have a diagnosis of RA as defined by the […] revised ARA criteria with disease duration of no less than 6 months. All patients must have active RA as defined by the following parameters: • at least 6 swollen and 9 tender joints based on 58/60 joint count upon entry into the study • one of the following: erythrocyte sedimentation rate (ESR) >28 mm/hr, C-reactive protein (CRP)>1.5 mg/dL or morning stiffness>45 minutes
Patients must have received methotrexate for at least 16 weeks and must be on a stable dose (≧7.5 mg/week) and route of administration for at least 8 weeks prior to Day 1. […]
The primary efficacy outcome measure is the attainment of ACR20 criteria for improvement of RA and the proportion of patients in each group meeting the ACR20 criteria is determined. […]

Compound | concentration at which maximal effects are observed ([1]; bromodeoxyuridine method) | suppression of the growth of synovial cells ([1]; by both criteria: bromodeoxyuridine incorporation and direct counting of viable cells) | concentration at which maximal effects are shown ([1]; direct cell counting) | NTEL [2] | ED50 inhibition of LPS-induced fever [3] | NTEL [4] | inhibition of paw hyperalgesia ([5]; 2 mg/kg p.o., 1 hour after dosing) | inhibition of paw hyperalgesia ([5]; 4 mg/kg p.o., 1 hour after dosing) | inhibition of paw hyperalgesia ([5]; 4 mg/kg p.o., 2 hours after dosing) | ED50 inhibition of IL-1β-induced fever [6] | ACR Responders (in %) to ACR20 ([7]; Week 2) | ACR Responders (in %) to ACR20 ([7]; Week 12) | concentration at which suppression is maximal ([1]; synovial cell growth assessed by total intracellular ATP levels)
CO[C@H]1C[C@@H]2CC[C@@H](C)[C@@](O)(O2)C(=O)C(=O)N2CCCC[C@H]2C(=O)O[C@H]([C@H](C)C[C@@H]2CC[C@@H](OCCO)[C@H](OC)C2)CC(=O)[C@H](C)/C=C(\C)[C@@H](O)[C@@H](OC)C(=O)[C@H](C)C[C@H](C)/C=C/C=C/C=C/1C [Compound A, 40-0-(2-hydroxyethyl)-rapamycin] | 10 pM | significantly suppresses | 10 nM | 0.5 mg/kg/day | 1.9 (1.21-2.41) mg/kg p.o. | 1.5 mg/kg/day | significantly inhibits | significantly inhibits | significantly inhibits | < 0.54 mg/kg p.o. | 14.8% | 36.1% | 
CO[C@H]1C[C@@H]2CC[C@@H](C)[C@@](O)(O2)C(=O)C(=O)N2CCCC[C@H]2C(=O)O[C@H]([C@H](C)C[C@@H]2CC[C@@H](O)[C@H](OC)C2)CC(=O)[C@H](C)/C=C(\C)[C@@H](O)[C@@H](OC)C(=O)[C@H](C)C[C@H](C)/C=C/C=C/C=C/1C [rapamycin, Rapamycin, reference compound] |  |  |  |  |  |  |  |  |  |  |  |  | 10 pM
